Source: PubChem BioAssay AID1963871 (Molecular Pharmacology Branch, DTP, NCI, 2024)

System: KRAS-mutant PDC multicell tumor spheroid viability
Test: Anticancer human tumor 521955-158-R2-J5-PDC patient-derived pancreatic carcinoma cell line growth inhibition [KRAS2]
Conditions: for IC50: curve of first compound; for viability, T/C: stronger effect = lower value
Summary of the method: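 KRAS-mutant tumor cells were grown as spheroids with HUVEC endothelial cells and human MSCs as stroma. Targeted agents were tested alone and with KRAS pathway inhibitors. Doses started at or near clinical Cmax, or 10 microM, descending half-log.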

[1] = second compound 0.1 µM, first compound 0.0316 µM
[2] = second compound 0.1 µM, first compound 0.1 µM
[3] = second compound 0.1 µM, first compound 0.316 µM
[4] = second compound 0.1 µM, first compound 1 µM
[5] = second compound 0.1 µM, first compound 3.16 µM
[6] = second compound 0.1 µM, first compound 10 µM
[7] = second compound 0.316 µM, first compound 0.0316 µM
[8] = second compound 0.316 µM, first compound 0.1 µM
[9] = second compound 0.316 µM, first compound 0.316 µM
[10] = second compound 0.316 µM, first compound 1 µM
[11] = second compound 0.316 µM, first compound 3.16 µM
[12] = second compound 0.316 µM, first compound 10 µM
[13] = second compound 1 µM, first compound 0.0316 µM
[14] = second compound 1 µM, first compound 0.1 µM
[15] = second compound 1 µM, first compound 0.316 µM
[16] = second compound 1 µM, first compound 1 µM
[17] = second compound 1 µM, first compound 3.16 µM
[18] = second compound 1 µM, first compound 10 µM
[19] = second compound 3.16 µM, first compound 0.0316 µM
[20] = second compound 3.16 µM, first compound 0.1 µM
[21] = second compound 3.16 µM, first compound 0.316 µM
[22] = second compound 3.16 µM, first compound 1 µM
[23] = second compound 3.16 µM, first compound 3.16 µM
[24] = second compound 3.16 µM, first compound 10 µM
[25] = second compound 10 µM, first compound 0.0316 µM
[26] = second compound 10 µM, first compound 0.1 µM
[27] = second compound 10 µM, first compound 0.316 µM
[28] = second compound 10 µM, first compound 1 µM
[29] = second compound 10 µM, first compound 3.16 µM
[30] = second compound 10 µM, first compound 10 µM
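Further: viability read after seven days of drug exposure.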

Row | SMILES | IC50 (second compound 0.1 µM) [nM] | IC50 (second compound 0.316 µM) [nM] | IC50 (second compound 1 µM) [nM] | IC50 (second compound 3.16 µM) [nM] | IC50 (second compound 10 µM) [nM] | viability, T/C [1] [%] | viability, T/C [2] [%] | viability, T/C [3] [%] | viability, T/C [4] [%] | viability, T/C [5] [%] | viability, T/C [6] [%] | viability, T/C [7] [%] | viability, T/C [8] [%] | viability, T/C [9] [%] | viability, T/C [13] [%] | viability, T/C [14] [%] | viability, T/C [19] [%] | viability, T/C [20] [%] | viability, T/C [25] [%] | viability, T/C [26] [%] | other results
1 | COc1cc(Nc2ncc3c(n2)-c2ccc(Cl)cc2C(c2c(F)cccc2OC)=NC3)ccc1C(=O)O + CC1OCC2(CCN(c3cnc(Sc4ccnc(N)c4Cl)c(N)n3)CC2)C1N | < 31.6 | < 31.6 | < 31.6 | < 31.6 | < 31.6 | 44.6 | 45.2 | 39.7 | 38.8 | 37.2 | 37.4 | 41 | 39.3 | 45.5 | 39.5 | 35.1 | 38.4 | 31.1 | 37.8 | 37.7 | viability, T/C [10]: 34.4%; viability, T/C [11]: 36.4%; viability, T/C [12]: 35.8%; viability, T/C [15]: 38.1%; viability, T/C [16]: 36%; viability, T/C [17]: 34.5%; viability, T/C [18]: 30.5%; viability, T/C [21]: 30.8%; viability, T/C [22]: 30%; viability, T/C [23]: 28.2%; viability, T/C [24]: 33.6%; viability, T/C [27]: 36%; viability, T/C [28]: 37.1%; viability, T/C [29]: 27.1%; viability, T/C [30]: 31.1%
2 | COc1cc2nccc(Oc3ccc(NC(=O)C4(C(=O)Nc5ccc(F)cc5)CC4)cc3)c2cc1OC + CC1OCC2(CCN(c3cnc(Sc4ccnc(N)c4Cl)c(N)n3)CC2)C1N | 8050 | 5530 | 4800 | < 31.6 | 1090 | 75.7 | 90.5 | 74.8 | 77.8 | 64.1 | 46.7 | 64.3 | 74.3 | 63.5 | 66.8 | 64.5 | 42.4 | 46.4 | 44.9 | 48.7 | viability, T/C [10]: 71%; viability, T/C [11]: 60.3%; viability, T/C [12]: 37.8%; viability, T/C [15]: 65.6%; viability, T/C [16]: 60.6%; viability, T/C [17]: 61%; viability, T/C [18]: 32%; viability, T/C [21]: 51.4%; viability, T/C [22]: 52.5%; viability, T/C [23]: 46.8%; viability, T/C [24]: 46.2%; viability, T/C [27]: 53.2%; viability, T/C [28]: 56.5%; viability, T/C [29]: 40.1%; viability, T/C [30]: 27.7%
3 | Cn1ncnc1[C@H]1c2n[nH]c(=O)c3cc(F)cc(c23)N[C@@H]1c1ccc(F)cc1 + CC1OCC2(CCN(c3cnc(Sc4ccnc(N)c4Cl)c(N)n3)CC2)C1N | > 100 | > 100 | 3.6 | < 0.316 | < 0.316 | 63.7 | 53.3 |  |  |  |  | 46.6 | 55.1 |  | 45.4 | 51.4 | 41.9 | 41.8 | 37.9 | 40 | viability, T/C (second compound 0.1 µM, first compound 0.000316 µM): 72.5%; viability, T/C (second compound 0.1 µM, first compound 0.001 µM): 75%; viability, T/C (second compound 0.1 µM, first compound 0.00316 µM): 63.8%; viability, T/C (second compound 0.1 µM, first compound 0.01 µM): 63.6%; viability, T/C (second compound 0.316 µM, first compound 0.000316 µM): 58%; viability, T/C (second compound 0.316 µM, first compound 0.001 µM): 58.2%; viability, T/C (second compound 0.316 µM, first compound 0.00316 µM): 61.5%; viability, T/C (second compound 0.316 µM, first compound 0.01 µM): 55.6%; viability, T/C (second compound 1 µM, first compound 0.000316 µM): 56.7%; viability, T/C (second compound 1 µM, first compound 0.001 µM): 53.4%; viability, T/C (second compound 1 µM, first compound 0.00316 µM): 52.7%; viability, T/C (second compound 1 µM, first compound 0.01 µM): 45%; viability, T/C (second compound 3.16 µM, first compound 0.000316 µM): 46.4%; viability, T/C (second compound 3.16 µM, first compound 0.001 µM): 44.4%; viability, T/C (second compound 3.16 µM, first compound 0.00316 µM): 46.5%; viability, T/C (second compound 3.16 µM, first compound 0.01 µM): 44.5%; viability, T/C (second compound 10 µM, first compound 0.000316 µM): 43.6%; viability, T/C (second compound 10 µM, first compound 0.001 µM): 47.5%; viability, T/C (second compound 10 µM, first compound 0.00316 µM): 46.5%; viability, T/C (second compound 10 µM, first compound 0.01 µM): 38.5%
